Measurements published in patent publication US11053226B2, “KRAS G12C inhibitors and methods of using the same” (Amgen Inc., priority 2018, dated 2021).
Like-named read-outs stand apart in the source and are kept apart here.

How the values were obtained:
[1] = tested on: Phosphorylation of ERK1/2 in A549 cells; test: Phospho-ERK1/2 MSD Assay (A549); format: cell-based
[2] = tested on: Phosphorylation of ERK1/2 in MIA PaCa-2 cells; test: Phospho-ERK1/2 MSD Assay; format: cell-based; conditions: MiaPaCa-2 cells
[3] = molecular target: GDP-bound KRAS protein (aa 1-169), containing both G12C and C118A amino acid substitutions (Homo sapiens (Human), UniProt P01116, C118A/G12C); test: Coupled Nucleotide Exchange Assay; format: biochemical
GDP-bound KRAS protein (aa 1-169), containing both G12C and C118A amino acid substitutions, sequence (P01116 other isoform, or with tags, fused parts or gaps G12C/C118A): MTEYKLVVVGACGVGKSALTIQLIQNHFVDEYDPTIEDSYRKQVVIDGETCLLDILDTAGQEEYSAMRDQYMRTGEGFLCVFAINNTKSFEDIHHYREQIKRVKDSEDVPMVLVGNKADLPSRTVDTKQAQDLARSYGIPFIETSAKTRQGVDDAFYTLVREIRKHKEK
Description: For compounds in Table 9, the following assay conditions were employed:
Coupled Nucleotide Exchange Assay:
The assay plates were then read on a PerkinElmer EnVision Multilabel Reader, using AlphaScreen® technology, and data were analyzed using a 4-parameter logistic model to calculate IC50 values.

[4] = Homo sapiens, read-out: pERK IC50 (4 h), 4 h compound treatment
[5] = Homo sapiens, MIA PaCa-2, read-out: pERK IC50 (4 h), 4 h compound treatment
[6] = read-out: Coupled Exchange IC50 (2 h), 2 h compound pre-incubation
[7] = read-out: Coupled Exchange IC50 (20 h), 20 h compound pre-incubation
[8] = Homo sapiens, A549, 4 h, read-out: pERK IC50 (4 h, A549), 4 h compound treatment
[9] = Homo sapiens, MIA PaCa-2, 4 h, read-out: pERK IC50 (4 h, MiaPaCa-2), 4 h compound treatment
[10] = read-out: pERK IC50 (4 h, MiaPaCa-2), 4 h compound treatment
[11] = read-out: Coupled Exchange IC50 (5 min), 5 min compound pre-incubation

Compound	IC50 [1, 4]	IC50 [2, 5]	IC50 [3, 6]	IC50 [3, 7]	IC50 [1, 8]	IC50 [2, 9]	IC50 ([1]; read-out: pERK IC50 (4 h, A549), 4 h compound treatment)	IC50 [2, 10]	IC50 [3, 11]
C=CC(=O)N1CC(NC(=O)Cn2cc(I)c3ccc(-c4ccccc4Cl)cc32)C1 [Example 150]	> 100 µM	50.8 µM	2.92 µM	0.59 µM	–	–	–	–	–
C=CC(=O)N1CC(N(C)C(=O)Cn2c(C)c(C(=O)N3CCN(c4ccc(C#N)cn4)CC3)c3cc(Br)ccc32)C1 [Example 27]	–	–	0.77 µM	0.24 µM	> 100 µM	2.5 µM	–	–	–
C=CC(=O)N1CC(NC(=O)Cn2c(C)c(C(=O)N3CCc4c(cccc4OC)C3)c3cc([N+](=O)[O-])ccc32)C1 [Example 17]	–	–	1.22 µM	0.3 µM	–	–	> 100 µM	1.83 µM	–
C=CC(=O)N1CC(N(C)C(=O)Cn2c(C)c(C(=O)N3CCN(c4ccc(C#N)cn4)C[C@H]3C)c3cc(Br)ccc32)C1 [Example 8]	–	–	0.22 µM	–	> 100 µM	1.56 µM	–	–	–
C=CC(=O)N1CC(NC(=O)Cn2c3ccc(Br)cc3c3c(Cl)ccnc32)C1 [Example 75]	> 100 µM	11.3 µM	3.73 µM	0.43 µM	–	–	–	–	–
C=CC(=O)N1CC(NC(=O)Cn2cc(-c3cccc4ccccc34)c3cc(Br)cc(C)c32)C1 [Example 110]	42.1 µM	24.9 µM	4.39 µM	1.2 µM	–	–	–	–	–
C=CC(=O)N1CC(NC(=O)Cn2cc(I)c3ccc(Br)cc32)C1 [Example 70]	> 100 µM	9.94 µM	8.96 µM	1.7 µM	–	–	–	–	–
C=CC(=O)N1CC(NC(=O)Cn2cc(-c3ccccc3C)c3cc(Cl)ccc32)C1 [Example 78]	> 100 µM	11.7 µM	5.49 µM	1.2 µM	–	–	–	–	33.1 µM
C=CC(=O)N1CC(NC(=O)Cn2c3c(c4cc(Br)ccc42)CCCCC3)C1 [Example 102]	> 100 µM	21.2 µM	4.9 µM	0.9 µM	–	–	–	–	–
C=CC(=O)N1CC(NC(=O)Cn2c(C3CC3)c(C(=O)N3CCc4c(ccnc4OC)C3)c3cc(Cl)cc(C)c32)C1 [Example 1-4, 2-(5-Chloro-2-cyclopropyl-3-((5-methoxy-3,4-dihydro-2,6-naphthyridin-2(1H)-yl)carbonyl)-7-methyl-1H-indol-1-yl)-N-(1-(2-propenoyl)-3-azetidinyl)acetamide]	–	–	0.08 µM	0.01 µM	> 100 µM	0.15 µM	–	–	0.27 µM
C=CC(=O)N1CC(NC(=O)Cn2cc(-c3c(O)cccc3F)c3cc(Cl)ccc32)C1 [Example 144]	> 100 µM	46.8 µM	3.84 µM	0.75 µM	–	–	–	–	–
C=CC(=O)N1CC(NC(=O)Cn2c(C)c(C(=O)N3CCc4ccccc4[C@H]3C)c3cc(Br)cc(C)c32)C1 (stereo in doubt) [Example 2-2, 2-(5-Bromo-2,7-dimethyl-3-(((1R)-1-methyl-3,4-dihydro-2(1H)-isoquinolinyl)carbonyl)-1H-indol-1-yl)-N-(1-(2-propenoyl)-3-azetidinyl)acetamide|2-(5-bromo-2,7-dimethyl-3-(((1S)-1-methyl-3,4-dihydro-2(1H)-isoquinolinyl)carbonyl)-1H-indol-1-yl)-N-(1-(2-propenoyl)-3-azetidinyl)acetamide]	–	–	0.25 µM	–	40.9 µM	–	–	2.28 µM	–
C=CC(=O)N1CC(N2CCC(n3cc(I)c4cc(Cl)ccc43)C2=O)C1 (stereo not shown) [Example 90]	> 100 µM	16 µM	4.3 µM	0.48 µM	–	–	–	–	61.1 µM
C=CC(=O)N1CC(NC(=O)Cn2cc(C(=O)N3CCc4c(Br)cc(C)cc4C3)c3cc(Br)cc(C)c32)C1 [Example 80]	–	–	0.33 µM	0.15 µM	25.7 µM	12.2 µM	–	–	–
C=CC(=O)N1CC(NC(=O)Cn2c3ccc(Br)cc3c3ccc(Oc4cccnc4)nc32)C1 [Example 55]	> 100 µM	5.93 µM	0.95 µM	0.23 µM	–	–	–	–	–
